Reference: patent publication US8222278B2, “Treatment of attention-deficit/hyperactivity disorder” (Abbott Laboratories, priority 2008, dated 2012)

System: adults with ADHD
Experiment: Study A: patient-reported health outcomes (AAQoL, WPAI)
Type: in vivo, human
Set-up: WPAI Absenteeism (employed), Mean Diff. / WPAI Impaired Work Effectiveness (employed), Mean Diff. / AAQoL Total, Mean Diff. / WPAI Overall Activity Impairment (all), Mean Diff. / WPAI Overall Work Impairment (employed), Mean Diff.: scale not given here
Experimental: A clinical study (Study A) was conducted to assess the safety and efficacy of ABT-894 compared to placebo in adults with ADHD and to evaluate the dose-response relationship.
Subjects in each dose group received, in random order, both ABT-894 and placebo according to a 2×2 crossover design. Each treatment period was 4 weeks separated by a 2-week washout period.
Secondary efficacy endpoints included the CAARS:Inv Inattentive and Hyperactive/Impulsive Subscale Scores, Clinical Global Impression-ADHD-Severity Scale (CGI-ADHD-S). Adult ADHD Investigator Symptom Report Scale (AISRS), including total and subscales, and the Self-rated Connors Adult ADHD Rating Scale (CAARS-Self). Health outcomes including the Adult ADHD Quality of Life Scale (AAQoL) and Work Productivity and Activity Impairment Questionnaire (WPAI) were used to evaluate the validity of these scales in this study population for use in subsequent clinical trials.

Which “Measures of quality of life relative to placebo” value (ABT-894 2 mg QD) does the source give for `Clc1cc(N2C[C@@H]3CN[C@@H]3C2)cnc1Cl` [ABT-894, 3-(5,6-Dichloro-pyridin-3-yl)-1S,5S-3,6-diazabicyclo[3.2.0]heptane] here?
Its value is “improved measures of quality of life relative to placebo”.

What about the “WPAI Impaired Work Effectiveness (employed), Mean Diff.” value (ABT-894 4 mg BID, N 22) of the same molecule?
The value was −0.104.

And the “WPAI Overall Work Impairment (employed), Mean Diff.” value (ABT-894 4 mg BID, N 22)?
Its value is −0.093.

And the “WPAI Overall Activity Impairment (all), Mean Diff.” value (ABT-894 4 mg BID, N 43)?
The value was −0.108.
